{"source": "patent US9618511B2", "about": "“Methods and compositions for treating alzheimer's disease” (Eleanore Bennett Charitable Trust #2, priority 2008, dated 2017)", "key": {"Rictor-stimulated Akt1": {"molecular_target": "T1, Rictor-stimulated Akt1", "T1 construct": "endogenous in cells; host or cells: Rictor from insulin-treated C2C12 myotubes", "T1 sequence (P31749 whole entry, the tested form may be a part)": "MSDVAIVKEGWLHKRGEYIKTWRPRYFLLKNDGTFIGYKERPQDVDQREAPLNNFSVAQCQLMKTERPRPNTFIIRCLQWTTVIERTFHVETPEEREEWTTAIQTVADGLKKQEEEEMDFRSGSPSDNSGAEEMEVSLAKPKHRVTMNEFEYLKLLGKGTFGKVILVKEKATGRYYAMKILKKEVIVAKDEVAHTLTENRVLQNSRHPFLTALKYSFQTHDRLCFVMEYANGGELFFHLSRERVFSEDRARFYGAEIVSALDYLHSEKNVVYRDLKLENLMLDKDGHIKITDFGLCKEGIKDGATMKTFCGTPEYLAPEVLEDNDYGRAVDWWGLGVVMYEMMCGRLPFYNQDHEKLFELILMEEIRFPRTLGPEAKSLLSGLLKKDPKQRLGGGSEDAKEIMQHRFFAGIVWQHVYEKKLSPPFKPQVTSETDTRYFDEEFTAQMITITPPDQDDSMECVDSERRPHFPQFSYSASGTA", "assay": "Rictor-dependent Akt1 activity, in vitro kinase assay", "assay_type": "biochemical, mouse (C2C12 myotubes)", "conditions": "10 μM", "description": "Another kinase, termed SGK (serum/glucocorticoid regulated kinase), is also activated by PDK. Similar to Akt, SGK has a PH domain and phosphorylates GSK-3 α/β (Kobayashi, T., Deak, M., Morrice, N., and Cohen, P., 1999, Characterization of the structure and regulation of two novel isoforms of serum- and glucocorticoid-induced protein kinase, Biochem J 344 Pt 1:189-197, and Tessier, M., and Woodgett, J. R., 2006, Serum and glucocorticoid-regulated protein kinases: variations on a theme, J Cell Biochem 98:1391-1407). If Aβ inhibits PH-mediated activations of Akt independent of PIP3, it is predicted to affect this mechanism too. Indeed, in FIG. 7D, ADDL-containing Aβ preparations inhibited PDK-stimulated SGK activity (lane 7 vs. 6 and 5). […] This enhanced activity was not however, interrupted by Aβ (10 μM, lane 4 vs. 3). Lastly, another kinase that converges to phosphorylate GSK, PKA (Grimes, C. A., and Jope, R. S., 2001, The multifaceted roles of glycogen synthase kinase 3beta in cellular signaling, Prog Neurobiol 65:391-426; Li, M., Wang, X., Meintzer, M. K., Laessig, T., Birnbaum, M. J., and Heidenreich, K. A., 2000, Cyclic AMP promotes neuronal survival by phosphorylation of glycogen synthase kinase 3beta, Mol Cell Biol 20:9356-9363), was tested. […] Thus, the mechanism of Aβ inhibition of Akt activation is specific to PDK-like kinases. […]"}, "[1]": {"system": "PDK-dependent activation of Akt1", "assay": "In vitro PDK-dependent Akt1 phosphorylation and activity assay (immunoprecipitated PDK1 and Akt1, GSK-3 fusion protein substrate)", "assay_type": "biochemical, human (SH-SY5Y, HEK293), mouse (C2C12)", "conditions": "for IC50: in vitro Aβ conditions; for Ki: monomeric-predominant preparations", "experimental": "Akt1 was immunoprecipitated (IP) overnight from 100 μg of the human brain sample or from C2C12 myotubes infected with adenovirus encoding Aβ using a 1:100 dilution of goat anti-Akt1 antibody. The following morning, 40 μl of a 50% slurry of protein G-Agarose (PGA) (Roche Applied Science) was added for an additional 1.5 hours. The beads were washed twice with wash buffer [1× phosphate buffered saline (PBS), 0.5% NP-40, 0.1 mM Na3VO4] and twice with kinase buffer [25 mM Tris (pH 7.5), 2 mM DTT, 0.1 mM Na3VO4, 10 mM MgCl2]. ATP (200 μM) and GSK-3 fusion protein (1 μg/50 μl) were added in the presence of kinase buffer, and the final reaction (50 μl) was incubated 30 minutes at 30° C. The reaction was stopped by adding 40 μl of Laemmli buffer. 20 μl of sample was loaded onto a 10% polyacrylamide gel for fractionation and western detection development.\nImmunoprecipitates (IPs) of PDK1 and Akt were prepared from 100 μg of either SH-SY5Y, C2C12 myotubes or from insulin-treated cultures. ATP (200 μM), GSK-3 fusion protein (1 μg/50 μl) and kinase buffer were added to the reaction. Various Aβ peptides were finally added at 0.01, 0.1, 1, 5, 10, 20 μM. Akt activity level was otherwise determined as above."}, "[2]": {"conditions": "FIG. 7A, vs reverse peptide 5 μM"}}, "note": "Like-named read-outs stand apart in the source and are kept apart here.", "data": [{"substance": "Aβ42: synthetic 42 amino acid β-amyloid peptide, forward sequence, freshly prepared, predominantly monomeric (BioSource)", "values": [{"measurement": "Rictor-stimulated Akt1 activity", "setting": "Rictor-stimulated Akt1", "value": "no change"}, {"measurement": "effect on PDK-stimulated Akt activity (GSK-3 substrate phosphorylation)", "setting": "[1]; 5 μM (or doses up to 5 μM)", "value": "dramatically inhibited"}, {"measurement": "effect on PDK-stimulated Akt activity / Akt phosphorylation", "setting": "[1]; 10 μM", "value": "completely abrogated"}, {"measurement": "inhibition of Akt phosphorylation", "setting": "[1]; 10 μM, freshly prepared predominantly monomeric peptide", "value": "up to 50%"}, {"measurement": "effect on PDK-stimulated Akt activity / Akt phosphorylation", "setting": "[1]; 10 μM, listed as Aβ", "value": "inhibited"}, {"measurement": "concentrations that significantly inhibit Akt phosphorylation (activation)", "setting": "[1]; [2]", "value": "≥ 10", "unit": "µM"}, {"measurement": "concentrations that significantly inhibit the stimulation of Akt activity", "setting": "[1]; [2]", "value": "≥ 5", "unit": "µM"}, {"measurement": "concentration at which Akt activation (pSer473, pThr308) and Akt activity begin to be affected", "setting": "[1]; SH-SY5Y IP kinases, FIG. 6B", "value": "~1", "unit": "μM"}, {"measurement": "IC50", "setting": "[1]; FIG. 7A, read-out: PDK-dependent Akt1 phosphorylation (Ki50)", "value": "~10000", "unit": "nM"}, {"measurement": "IC50", "setting": "[1]; activity assay, FIG. 7A, listed as Aβ, read-out: PDK-dependent Akt1 activation (Ki50)", "value": "~1000", "unit": "nM"}, {"measurement": "IC50", "setting": "[1]; activity assay, FIG. 7A, read-out: PDK-dependent Akt1 activation (Ki50)", "value": 1000, "unit": "nM"}, {"measurement": "Ki", "setting": "[1]; read-out: Ki in activity assays", "value": "~2000", "unit": "nM"}, {"measurement": "Ki", "setting": "[1]; read-out: Ki in western blots of p-Akt levels", "value": "~10000", "unit": "nM"}, {"measurement": "PDK stimulation of Akt activity after preincubation and washout", "setting": "[1]; preincubation of both IP kinases, washout before kinase reaction", "value": "no inhibitory effect"}]}]}
